Where a SMILES comes first, the peptide text is derived from it. The star is where a group is joined. X1 = Oc1cccc(N*)c1
Experiments:
[1] = biological target: Human immunodeficiency virus type 1 protease (Human immunodeficiency virus 1, UniProt Q72874, Q7K); experiment: Inhibition of HIV1 subtype C protease Q7K mutant expressed in Escherichia coli BL21 (DE3) pLysS using Lys-Ala-Arg-Val-Nle-p-nitro-Phe-Glu-Ala-Nle-NH2 as substrate by spectrophotometry
[2] = Solubility of the compound in aqueous buffer at pH 5; type: physicochemical
[3] = Ratio of cytotoxicity for Lopinavir to compound for human MT4 cells after 5 days by XTT assay; type: cell-based
MT4 = experiment: Cytotoxicity against human MT4 cells after 5 days by XTT assay; type: cell-based; conditions: MT4, 120 h

Row | Compound | IC50 [1] | solubility [2] | selectivity ratio at 120 h [3] | IC50 (MT4)
1 | CC[C@H](C)[C@H](NC(=O)[C@@H](N)CO)C(=O)N[C@@H](C)C(=O)N[C@@H](CCC(N)=O)C(=O)NC12NC(=O)C3(O)C4C5CC(C6C5C3C61)C42 (mixture of isomers) | 5 µM | soluble | 6000 | –
2 | CC[C@H](C)[C@H](NC(=O)[C@@H](N)CO)C(=O)N[C@@H](C)C(=O)N[C@@H](CCC(=O)O)C(=O)Nc1cccc(O)c1 (H-SIAE-X1) | 10 µM | – | – | –
3 | CC[C@H](C)[C@H](NC(=O)[C@@H](N)CO)C(=O)N[C@@H](C)C(=O)NC12NC(=O)C3(O)C4C5CC(C6C5C3C61)C42 (mixture of isomers; form 1) | 0.5 µM | soluble | 6000 | > 300 µM
4 | CC[C@H](C)[C@H](NC(=O)[C@@H](N)CO)C(=O)N[C@@H](C)C(=O)N[C@@H](CCC(=O)O)C(=O)NC12NC(=O)C3(OC(C)=O)C4C5CC(C6C5C3C61)C42 (mixture of isomers) | > 10 µM | soluble | 6000 | –
5 | CC[C@H](C)[C@H](NC(=O)[C@@H](N)CO)C(=O)N[C@@H](C)C(=O)NC12NC(=O)C3(O)C4C5CC(C6C5C3C61)C42 (mixture of isomers; form 2) | 10 µM | – | – | –
6 | Cc1cccc(C)c1OCC(=O)N[C@@H](Cc1ccccc1)[C@@H](O)C[C@H](Cc1ccccc1)NC(=O)[C@H](C(C)C)N1CCCNC1=O [LOPINAVIR] | – | – | – | 0.035 µM
7 | COC(=O)N[C@H](C(=O)N[C@@H](Cc1ccccc1)[C@@H](O)CN(Cc1ccc(-c2ccccn2)cc1)NC(=O)[C@@H](NC(=O)OC)C(C)(C)C)C(C)(C)C [ATAZANAVIR] | 0.004 µM | – | – | –
8 | CC[C@H](C)[C@H](NC(=O)[C@@H](N)CO)C(=O)N[C@@H](C)C(=O)N[C@@H](CCC(=O)O)C(=O)NC12NC(=O)C3(O)C4C5CC(C6C5C3C61)C42 (mixture of isomers) | 0.078 µM | soluble | 6000 | 218 µM
9 | CC[C@H](C)[C@H](N)C(=O)N[C@@H](C)C(=O)N[C@@H](CCC(=O)O)C(=O)NC12NC(=O)C3(O)C4C5CC(C6C5C3C61)C42 (mixture of isomers) | 0.5 µM | soluble | 6000 | 216 µM
10 | CC[C@H](C)[C@H](NC(=O)[C@@H](N)CO)C(=O)N[C@H](C(=O)N[C@@H](CCC(=O)O)C(=O)NC12NC(=O)C3(O)C4C5CC(C6C5C3C61)C42)C(C)C (mixture of isomers) | 2 µM | soluble | 6000 | –

Source: ChEMBL document CHEMBL1828574, “Synthesis and structural studies of pentacycloundecane-based HIV-1 PR inhibitors: a hybrid 2D NMR and docking/QM/MM/MD approach” (Eur J Med Chem, 2011)
